Laboratory results from patent US8088605B2, “Exopolysaccharides delivery system for active molecules” (Technologies Biolactics Inc., priority 2002, dated 2012).
“Also recorded” adds a separate entry of the source.

Legend:
[1] = tested on: Caco-2 human colon adenocarcinoma cells differentiated; experiment: Survival of differentiated Caco-2 cells with 5-Fu and EPS, XTT; type: cell-based; settings: four days exposure
Method: (§1) The in vitro toxicity of the exopolysaccharide micelles was tested by incubating the micelles with a wide range of cell lines for 4-hour, 8-hour, 72-hour and 96-hour periods. The XTT™ or Alamar Blue™ assays were used to quantify the survival rates in the presence of the exopolysaccharide micelles. The capability of the exopolysaccharide to deliver an active molecule was first tested in vitro using 5-Fluorouracil (5-Fu) as a model active molecule. […] The 5-Fu/exopolysaccharide formulation was incubated with either B16F10 (murine skin melanoma), Caco-2 (human colon adenocarcinoma) or IEC-6 (rat epithelial small intestine) cells over 72-hour to 96-hour. Vital dyes (XTT or Alamar Blue) were added to supernatants for a period of 4 hours. Absorbance values were collected and plotted to evaluate the survival rate of the cells to the treatment.
(§2) Caco-2, IEC-6 and melanocytes B16 cells were cultured in DMEM supplemented with 10% FBS. […] The cells were grown in a CO2 incubator for 4 extra days. Cell survival was assessed with XTT™ according to manufacturers recommendation. […] The data are as follows:
(§3) Percentages of EPS are expressed in (w/v).

[2] = tested on: B16F10 murine skin melanoma cells; experiment: Survival of B16F10 cells with 5-Fu and EPS, XTT; type: cell-based; settings: four days exposure
Method: as §1, §2, §3

[3] = tested on: Caco-2 human colon adenocarcinoma cells in proliferation; experiment: Survival of Caco-2 cells in proliferation with 5-Fu and EPS, XTT; type: cell-based; settings: four days exposure
Method: as §1, §2, §3

B16 cells [4] = experiment: Mice grafted i.p. with B16 cells treated with 5 FU/EPS; type: in vivo, Balb/c mice
Method: Tumor cells were trypsinized and washed 3 times with PBS. Cells (1×10E6) were injected i.p. to Balb/c mice to induce a cancer in the peritoneal cavity. […] This highlighting again that EPS are not inert and may contribute to the therapeutic index.

[5] = tested on: IEC-6 rat normal small intestine epithelial cells; experiment: Survival of IEC-6 cells with 5-Fu and EPS, Alamar Blue; type: cell-based; parameters: unit not given here; settings: three days exposure
Method: as §1, §2
[NB073]. Percentages of EPS are expressed in (w/v).

[6] = Fluorescein pharmacokinetic in rats, oral; type: in vivo, Wistar female rats; parameters: unit not given here; settings: fluorescein 1 mg/kg oral
Method: Fluorescein (FL) pharmacolinetic on unfasten Wistar female rats of 200 g and 8 weeks of age. Fluorescein concentration is 1 mg/kg. […] Fluorescein is added to the latter solutions and vortexed. Formulations are fed to the animals with a canula. 200 μl blood samples are collected through the jugular vein every 30 minutes for 2.5 hours. A final bleeding is made at 3.5 h. Plasma are collected immediately after centrifugation (10 min @ 1300 g). Plasma are frozen on dry ice until further analysis: 50 μl of plasma are diluted in 550 μl of saline 0.7% (w/v) and analyzed with a Varian Eclipse Spectrofluorometer (Excitation: 495 nm Emission: 515 nm). Concentrations were determined on a fluorescein standard curve (FL diluted in saline 0.7% and 50 μl of normal serum as in the sample analysis).

B16 cells [7] = experiment: Intramuscular B16 tumor formation after i.m. injection of paclitaxel-treated cells; type: in vivo; settings: mice with tumor / mice in group; cells treated 3 hrs before i.m. injection
Method: (§4) Cells (50000 cells per 50 μl injections) for a concentration of 10^6 cells per ml. The remaining of the test was performed as follows: • Cells from 1XT75 (80% confluence) are trypsinized with 2 ml trypsin, diluted in 12 ml media, spun down, rinsed once in 5 ml PBS, and resuspended in 2 ml PBS. Cells are then counted and concentration adjusted to 10^6 cells per ml. • P1 treatment: Add 200 μl P1 stock and […] of cell suspension (10^6 cells) and incubate at room temperature 3 hrs. Final Paclitaxel=1 mM, DMSO=1%. • P2 treatment: Add 200 μl P2 stock to 1.8 ml of cell suspension (10^6 cells) and incubate at room temperature 3 hrs. […] No growth was observed from either group after 2 weeks in culture.

B16 cells [8] = experiment: Growth in tissue culture of paclitaxel-treated B16 cells; type: cell-based; settings: replated after treatment, 2 weeks in culture
Method: as §4

[9] = Rhodamine 123 pharmacokinetic in rats, oral; type: in vivo, Wistar female rats; settings: 5 mg/kg oral
Method: The pharmacokinetic of Rhodamine 123 (R123) was performed on unfasten Wistar female rats of 200 g and 8 weeks of age. Rhodamine concentration is 5 mg/kg. […] Rhodamine is added to the latter solutions and vortexed. Formulations are fed to the animals with a canula and 200 μl blood samples are collected through the jugular vein every hour for 4 hours (plus 1 sample at 0.5 h). Plasma are collected immediately after centrifugation (10 min @ 13000 g). Plasma are frozen on dry ice until further analysis: 50 μl of plasma are diluted in 550 μl of saline 0.7% (w/v) and analyzed with a Varian Eclipse™ Spectrofluorometer (Excitation: 505 nm Emission: 540 nm). Concentrations were determined on a Rhodamine 123 standard curve (R123 diluted in saline 0.7% and 50 μl of normal serum as in the sample analysis).

## O=c1[nH]cc(F)c(=O)[nH]1 [5-Fu alone, 5-Fluorouracil]
[1]; 5-Fu 1 μg/ml
  Survival of Caco-2 cells differentiated: 105.7 ± 4.2
[1]; 5-Fu 10 μg/ml
  Survival of Caco-2 cells differentiated: 85.6 ± 8.8
[1]; 5-Fu 50 μg/ml
  Survival of Caco-2 cells differentiated: 99.6 ± 6.8
[1]; 5-Fu 100 μg/ml
  Survival of Caco-2 cells differentiated: 78.1 ± 0.7
[2]; 5-Fu 1 μg/ml
  Survival of B16F10 cells: 62.6 ± 6.6
[2]; 5-Fu 10 μg/ml
  Survival of B16F10 cells: 65.4 ± 10.4
[2]; 5-Fu 50 μg/ml
  Survival of B16F10 cells: 54.9 ± 8.9
[2]; 5-Fu 100 μg/ml
  Survival of B16F10 cells: 38.8 ± 8.5
[3]; 5-Fu 1 μg/ml
  Survival of Caco-2 cells in proliferation: 74.1 ± 1.9
[3]; 5-Fu 10 μg/ml
  Survival of Caco-2 cells in proliferation: 78.6 ± 2.4
[3]; 5-Fu 50 μg/ml
  Survival of Caco-2 cells in proliferation: 80.3 ± 1.8
[3]; 5-Fu 100 μg/ml
  Survival of Caco-2 cells in proliferation: 52.6 ± 4.8
B16 cells [4]; day 0
  Tumor-free mice: 100%
B16 cells [4]; day 15, 5 FU 100 mg/kg, EPS 0.1% w/v, treatment after 4 days
  Tumor-free mice: 62.5%
B16 cells [4]; day 29, 5 FU 100 mg/kg, EPS 0.1% w/v, treatment after 4 days
  Tumor-free mice: 12.5%
B16 cells [4]; day 44, 5 FU 100 mg/kg, EPS 0.1% w/v, treatment after 4 days
  Tumor-free mice: 12.5%
[5]; Table 5, 5-Fu 5 μg/ml
  Survival of IEC-6 cells: 16.9 ± 6.4
[5]; Table 5, 5-Fu 50 μg/ml
  Survival of IEC-6 cells: 28.0 ± 4.6
[5]; Table 5, 5-Fu 250 μg/ml
  Survival of IEC-6 cells: 35.4 ± 8.2
[5]; Table 5, 5-Fu 500 μg/ml
  Survival of IEC-6 cells: 33.4 ± 3.5
[5]; Table 6, 5-Fu 1 μg/ml
  Survival of IEC-6 cells: 78.0 ± 3.0
[5]; Table 6, 5-Fu 10 μg/ml
  Survival of IEC-6 cells: 75.4 ± 2.9
[5]; Table 6, 5-Fu 50 μg/ml
  Survival of IEC-6 cells: 81.8 ± 2.1
[5]; Table 6, 5-Fu 100 μg/ml
  Survival of IEC-6 cells: 80.2 ± 0.9

## O=C1OC2(c3ccc(O)cc3Oc3cc(O)ccc32)c2ccccc21 [FL-Water, Fluorescein]
[6]; time 0.0 h
  Fluorescein concentration in plasma: 37.10
[6]; time 0.5 h
  Fluorescein concentration in plasma: 218.30
[6]; time 1.0 h
  Fluorescein concentration in plasma: 145.95
[6]; time 1.5 h
  Fluorescein concentration in plasma: 75.25
[6]; time 2.0 h
  Fluorescein concentration in plasma: 74.48
[6]; time 2.5 h
  Fluorescein concentration in plasma: 71.74
[6]; time 3.5 h
  Fluorescein concentration in plasma: 54.63

## CC(=O)O[C@H]1C(=O)[C@@]2(C)[C@H]([C@H](OC(=O)c3ccccc3)[C@]3(O)C[C@H](OC(=O)[C@H](O)[C@@H](NC(=O)c4ccccc4)c4ccccc4)C(C)=C1C3(C)C)[C@]1(OC(C)=O)CO[C@@H]1C[C@@H]2O [P1, Paclitaxel]
B16 cells [7]
  Intramuscular tumor formation: 12/15
B16 cells [8]
  Growth in tissue culture: No growth; also recorded: negative

## Rhodamine 123 [R123 - Water]
[9]; time 0.0 h
  Rhodamine 123's concentration in plasma: 2.2 ± 2.2 ng/mL
[9]; time 0.5 h
  Rhodamine 123's concentration in plasma: 20.4 ± 2.2 ng/mL
[9]; time 1.0 h
  Rhodamine 123's concentration in plasma: 20.9 ± 2.6 ng/mL
[9]; time 2.0 h
  Rhodamine 123's concentration in plasma: 15.4 ± 2.0 ng/mL
[9]; time 3.0 h
  Rhodamine 123's concentration in plasma: 10.9 ± 1.4 ng/mL
[9]; time 4.0 h
  Rhodamine 123's concentration in plasma: 11.2 ± 1.8 ng/mL
